Among the data in PubChem BioAssay (NCI) are GI50 and TGI values, retold here.

Molecules are shown by their SMILES.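 Where inhibition never reached the appropriate level, the endpoint shown equals the highest concentration tested. Otherwise, values were interpolated linearly from a five-concentration, 48-hour dose response in 96-well plates. GI50: concentration for 50% inhibition of growth. TGI: concentration producing complete growth inhibition.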

Assay in all cases: NCI-60 cell line screen, 48 h
For assay [1], the system named is BT-549 breast.
Assay [2] relates to CAKI-1 renal.
The test system of assay [3] is COLO 205 colon.
The test system of assay [4] is DU-145 prostate.
For assay [5], the system named is LOX IMVI melanoma.
Assay [6] has as its system NCI-H23 lung.
The test system of assay [7] is NCI/ADR-RES ovarian.
Assay [8] has as its system SN12C renal.
For assay [9], the system named is SW-620 colon.
For assay [10], the system named is UACC-257 melanoma.

As to `COc1cccc(-n2ncc3c(N/N=C/c4ccncc4)ncnc32)c1`, the GI50 in assay [1] is more than 25 µM; in [2], 0.769 µM; in assay [3], 11.5 µM; in assay [4], 4.55 µM; in assay [5], 1.01 µM; in [6] it was more than 25 µM. Besides, the GI50 in assay [7] is more than 25 µM; in assay [8], 4.95 µM; in assay [9], 5.22 µM; in assay [10], more than 25 µM. Also, the TGI in [1], in [2], in assay [3], in assay [4], in [5] and in [6] was more than 25 µM throughout. The TGI in assay [7], in assay [8], in assay [9] and in [10] was more than 25 µM in each case.

With `COc1c2c(nc3ccccc13)-c1cc3c(c(=O)n1C2)COC(=O)C3(O)CC(=O)N1CCOCC1` (centres undefined), the TGI in assay [1] was more than 53.1 µM; in assay [2] it was 54 µM; in [3], more than 86.5 µM; in [4] it was 17.7 µM; in [5], 16.5 µM; in assay [6], 8.05 µM. The TGI in [7] was more than 48.8 µM; in assay [8] it was 25.4 µM; in assay [9], more than 100 µM; in [10], 98.4 µM.

`CN(C)c1ccc2c(c1)OC(N)=C(C#N)C2c1ccc2c(c1)CCO2` (centres undefined): the GI50 was 0.0385 µM in assay [1]; 0.147 µM in assay [2]; 0.28 µM in [3]; 0.229 µM in [4]; 0.053 µM in [5]; 0.362 µM in [6]. For the same compound, the GI50 in assay [7] was less than 0.0279 µM; in [8], 0.644 µM; in assay [9], less than 0.0294 µM; in [10] it was 27 µM. Besides, the TGI in [1] is 12.4 µM; in [2], more than 100 µM; in assay [3] it was 3.39 µM; in assay [4] it was more than 100 µM; in assay [5], 17.9 µM; in assay [6], more than 100 µM. In addition, the TGI was more than 22.1 µM in assay [7], 42.5 µM in assay [8], more than 100 µM in assay [9] and more than 100 µM in [10].

`COc1cc([C@H]2OC[C@H]3[C@@H]2CO[C@@H]3c2cc(OC)c3c(c2)OCO3)cc(OC)c1OC`: the TGI in [1], in [2], in assay [3], in [4], in assay [5] and in [6] was more than 100 µM throughout. Besides, the TGI in assay [7], in assay [8], in [9] and in [10] was more than 100 µM each time.

On to `COc1cc(C(=O)NC2CCN(C)CC2)c(F)cc1Nc1ncc2c(n1)N(C1CCCC1)CC(F)(F)C(=O)N2C`, for which the GI50 in assay [1] is 1.87 µM; in [2] it was less than 0.0243 µM; in [3], less than 0.01 µM; in assay [4], 0.0179 µM; in assay [5] it was less than 0.0186 µM; in assay [6] it was less than 0.0182 µM. For the same compound, the GI50 was less than 0.0329 µM in [7], 0.0604 µM in assay [8], less than 0.01 µM in assay [9] and 1.25 µM in assay [10]. Moreover, the TGI is 20 µM in assay [1]; 3.71 µM in assay [2]; 0.177 µM in assay [3]; 11.2 µM in [4]; 4.96 µM in assay [5]; 3.4 µM in assay [6]. Further, the TGI was 13.6 µM in assay [7], 14.4 µM in assay [8], 11.5 µM in assay [9] and 10.9 µM in [10].

Consider `CC#CC(=O)SCCNC(=O)CC`, for which the TGI in [1], in [2], in [3], in assay [4], in assay [5] and in assay [6] was more than 10 µM throughout. Also, the TGI in assay [7], in assay [8], in [9] and in assay [10] was more than 10 µM throughout.

As to `CCOc1ccccc1N=Nc1c(C)[nH]n(-c2nc(-c3ccccc3)cs2)c1=O`, the GI50 in assay [1] is 29.2 µM; in assay [2] it was more than 54.2 µM; in [3], more than 100 µM; in assay [4] it was 53.2 µM; in assay [5], more than 100 µM; in assay [6], more than 74.1 µM. The GI50 in [7] was 37.6 µM; in [8], more than 94.8 µM; in assay [9] it was more than 100 µM; in assay [10], 52.5 µM. For the same compound, the TGI in assay [1], in assay [2], in assay [3], in assay [4], in assay [5] and in [6] was more than 100 µM throughout. For the same compound, the TGI in assay [7], in [8], in [9] and in assay [10] was more than 100 µM in each case.

Take `O=[N+]([O-])c1cccc([As]=[As]c2cccc([N+](=O)[O-])c2)c1` (centres undefined): the GI50 in [1] was 0.0765 µM; in assay [2], 0.137 µM; in assay [3], 0.0663 µM; in [4], 0.163 µM; in assay [5], 0.0452 µM; in [6], 0.182 µM. Moreover, the GI50 in assay [7] is 0.182 µM; in [8] it was 0.11 µM; in assay [9] it was 0.046 µM; in assay [10], 0.122 µM. In addition, the TGI in [1] was 0.204 µM; in assay [2], 0.281 µM; in [3], 0.18 µM; in [4], 0.309 µM; in assay [5], 0.146 µM; in [6], 0.384 µM. Also, the TGI in assay [7] worked out at 0.447 µM; in [8], 0.239 µM; in assay [9], 0.195 µM; in assay [10] it was 0.252 µM.

With `CC(C)(O)CC(=O)NCCn1ccc2ncnc(Nc3ccc(Oc4cccc(C(F)(F)F)c4)c(Cl)c3)c21`, the GI50 in assay [1] was 5.52 µM; in [2], 1.8 µM; in assay [3], 3.5 µM; in assay [4], 2.96 µM; in assay [5] it was 2.34 µM; in assay [6], 3.76 µM. Further, the GI50 in assay [7] is 2.58 µM; in assay [8], 2 µM; in [9], 3.32 µM. In addition, the TGI in [1], in assay [2], in assay [3], in assay [4], in [5] and in assay [6] was more than 10 µM in each case. Besides, the TGI in [7], in assay [8], in [9] and in assay [10] was more than 10 µM throughout.

For the compound `Cc1ccc(CNc2c3ccccc3nc3cc(NC(=O)CCN4CCCC4)ccc23)cc1`, the GI50 in [1] is 1.47 µM; in [2], 1.23 µM; in assay [3] it was 0.408 µM; in [4], 0.516 µM; in assay [5] it was 0.515 µM; in assay [6], 0.518 µM. The GI50 in [7] was 4.02 µM; in [8], 0.479 µM; in assay [9], 0.413 µM; in [10] it was 1.69 µM. Also, the TGI in [1] is 2.88 µM; in assay [2], 3.91 µM; in assay [3], 1.62 µM; in assay [4], 1.66 µM; in assay [5] it was 1.76 µM; in [6], 1.81 µM. For the same compound, the TGI in [7] came out at 24.2 µM; in [8], 1.74 µM; in [9], 1.58 µM; in [10], 3.27 µM.

As to `CCN(CC)Cc1ccc(Nc2nccc(-c3cnn4ncccc34)n2)cc1`, the GI50 in assay [1] is 0.0377 µM; in [2] it was 0.0469 µM; in [3], 0.00829 µM; in [4], 0.012 µM; in [5] it was 0.00767 µM; in assay [6] it was 0.0217 µM. Besides, the GI50 in assay [7] is 0.032 µM; in assay [8], 0.0141 µM; in assay [9], 0.0136 µM; in assay [10], 0.0443 µM. The TGI in assay [1] was 0.139 µM; in [2], more than 9.11 µM; in assay [3] it was 0.0337 µM; in [4] it was more than 8.56 µM; in [5], more than 25 µM; in assay [6], 0.126 µM. The TGI in assay [7] was more than 25 µM; in [8], more than 25 µM; in [9], more than 9.07 µM; in [10], 0.143 µM.

`C/C=C(\C)C(=O)O[C@H]1C=CC(=O)O[C@@H]1CC[C@H](O)[C@H](C)O`: the GI50 in assay [1] is 27.3 µM; in assay [2], 27.3 µM; in assay [3] it was 30.6 µM; in assay [4], 34 µM; in [5], 27.5 µM; in assay [6], 69.1 µM. Also, the GI50 in [7] is more than 100 µM; in [8], 47 µM; in assay [9] it was 24 µM; in assay [10], 80.9 µM. For the same compound, the TGI is 71.2 µM in assay [1]; 68.4 µM in assay [2]; 72.6 µM in assay [3]; more than 100 µM in [4]; more than 78.7 µM in assay [5]; more than 100 µM in assay [6]. The TGI in assay [7] is more than 100 µM; in assay [8] it was more than 100 µM; in [9], 57.6 µM; in assay [10], more than 100 µM.
